Assay results taken from ChEMBL document CHEMBL5252594.
The source made the active and inactive calls.

What was measured:
Assay type in all cases: functional, organism-based
Aedes aegypti [1] = experiment: Larvicidal activity against Aedes aegypti Rockefeller strain L3 Larvae assessed as mortality at 90 ug/ml measured after 24 hrs; conditions: dose 90.0 µg/ml
Aedes aegypti [2] = experiment: Larvicidal activity against Aedes aegypti Rockefeller strain L3 Larvae assessed as mortality at 150 ug/ml measured after 48 hrs; conditions: dose 150.0 µg/ml
Aedes aegypti [3] = experiment: Larvicidal activity against Aedes aegypti Rockefeller strain L3 Larvae assessed as mortality at 90 ug/ml measured after 72 hrs; conditions: dose 90.0 µg/ml
Aedes aegypti [4] = experiment: Larvicidal activity against Aedes aegypti Rockefeller strain L3 Larvae assessed as mortality at 90 ug/ml measured after 48 hrs; conditions: dose 90.0 µg/ml
Aedes aegypti [5] = experiment: Larvicidal activity against Aedes aegypti Rockefeller strain L3 Larvae assessed as mortality at 150 ug/ml measured after 72 hrs; conditions: dose 150.0 µg/ml
Aedes aegypti [6] = experiment: Larvicidal activity against Aedes aegypti Rockefeller strain L3 Larvae assessed as mortality at 150 ug/ml measured after 24 hrs; conditions: dose 150.0 µg/ml

Measured: Activity

O=C(/C=C/c1ccc(O)c(O)c1)O[C@@H]1C[C@](O)(C(=O)O)C[C@@H](OC(=O)/C=C/c2ccc(O)c(O)c2)[C@H]1O
inactive: all assays above
